Reference: PubChem BioAssay AID2060910 (Molecular Pharmacology Branch, DTP, NCI, 2025)
Values joined by “and” are separate entries in the source; they are usually repeats but may differ in a detail not shown here. Equal entries are not always repeated.

System: 242566-281-R-J2-PDC complex spheroid viability
Assay: Anticancer human tumor 242566-281-R-J2-PDC patient-derived pancreatic carcinoma cell line growth inhibition [RAS]
Settings: for viability, T/C: stronger effect = lower value
Description: RAS pathway inhibitors in Combinations in Complex Spheroids
A high-throughput screen of multi-cell type tumor spheroids was designed to identify active combinations of RAS pathway inhibitors and targeted small molecules. Complex spheroids include a stromal component modeled by human endothelial cells (HUVEC) and fibroblasts modeled by human mesenchymal stem cells (MSCs). The concentration ranges selected for each drug and investigational agent were based upon clinically achievable concentrations if the clinical Cmax of the agent was known.
Compounds. The drugs and investigational agents: abemaciclib (NSC768073), cobimetinib (NSC768068), divarasib (GDC6063, NSC841802), docetaxel (NSC628503), GDC-1971 (RLY-1971, NSC841576), gemcitabine (NSC613327), inavolisib (NSC800729), ipatasertib (NSC767898), KB-0742 (NSC834161), MRTX-1133 (NSC836407), osimertinib (NSC779217), RMC-4630 (NSC839698), RMC-6236 (NSC851965), RMC-6291 (NSC852671), Ro-3306 (NSC812927), sapanisertib (NSC764658), SN-38 (NSC673596), staurosporine (NSC755774), SY5609 (NSC837396), and tovorafenib (DAY101, NSC766906), were obtained from the National Cancer Institute (NCI) Developmental Therapeutics Program Chemical Repository. The FDA-approved anticancer drug set is available from the NCI Developmental Therapeutics Program. […] The stock solutions were prepared in dimethyl sulfoxide (DMSO, Sigma-Aldrich, St. Louis, MO, cat. D2650) at 800-fold the tested concentration and stored at -70 degrees C prior to their use. All drugs and investigational agents were tested over a range starting from a high concentration at or near the clinical Cmax and decreasing in half-log increments. If the clinical Cmax for an agent had not been determined, the highest concentration tested was 10 microM.
Cell Culture. All cells were maintained in an incubator at 37 degrees C and 5% CO2 with 95% humidity. The PDC lines were cultured according to standard operating procedures established by the NCI PDMR. All PDCs were thawed and cultured in Matrigel-coated flasks prepared with a working solution of 1X Ham's F-12 nutrient mix, without supplementation (Invitrogen, Waltham, MA, cat. 11765054), 100 U/mL penicillin-streptomycin (Invitrogen, cat. 15140122), and 2.5% Matrigel (Corning Inc., Corning, NY, cat. 354248) for the first three passages. The 362531-283-R-J2-PDC and 782815-120-R-J1-PDC lines were cultured in 6C/Colon 1B media, which includes advanced DMEM/F-12 (Thermo Fisher Scientific, cat. 12634028), 10 mM HEPES (Thermo Fisher Scientific, cat. 15630080), 1X GlutaMAX supplement (Thermo Fisher Scientific, cat. 35050061), 0.1 mg/mL primocin (InvivoGen, San Diego, CA, cat. ant-pm-2), 10% defined fetal bovine serum, heat inactivated (HyClone Laboratories Inc., Logan, UT, cat. SH30070.03HI), 50% L-WRN conditioned media (ATCC, cat. CRL-3276), 1.25 mM N-Acetyl-L-cysteine (Sigma-Aldrich, cat. A9165), 10 mM nicotinamide (Sigma-Aldrich, cat. N0636), 1X B-27 supplement (Thermo Fisher Scientific, cat. 17504044), 1X N-2 supplement (Thermo Fisher Scientific, cat. 17502048), 50 ng/mL human EGF (Thermo Fisher Scientific, cat. PHG0311), and 10 microM Y-27632 dihydrochloride (Tocris Bioscience, cat. 1254). The K12877-001-R-J1-PDC line was cultured in 6I media, which includes all 6C/Colon 1B media plus 10 ng/mL human FGF-10 (PeproTech, cat. 100-26), 1 ng/mL human FGF-2 (PeproTech, cat. 100-18B), 1 µM prostaglandin E2 (Tocris Bioscience, cat. 2296), […] hydrocortisone (Sigma-Aldrich, cat. H4001), and […] bovine insulin (Sigma-Aldrich, cat. I6634). The K86415-001-R-J1-PDC line was cultured in 6D media, which includes all 6C/Colon 1B media components minus the L-WRN conditioned media. The 485176-168-R4-J1-PDC was cultured in PANC media, which includes all 6C/Colon 1B media plus 100 ng/mL human FGF-10 (PeproTech, cat. 100-26), 500 nM SB-431542 (Selleckchem, cat. S1067), and 10 nM gastrin (Tocris Bioscience, cat. 3006). […]

[1] = curve of first compound, second compound 0.0316 µM
[2] = curve of first compound, second compound 0.1 µM
[3] = curve of first compound, second compound 0.316 µM
[4] = curve of first compound, second compound 1 µM
[5] = second compound 0.0316 µM, first compound 0.0316 µM
[6] = second compound 0.0316 µM, first compound 0.1 µM
[7] = second compound 0.1 µM, first compound 0.0316 µM
[8] = second compound 0.1 µM, first compound 0.1 µM
[9] = second compound 0.316 µM, first compound 0.0316 µM
[10] = second compound 0.316 µM, first compound 0.1 µM
[11] = second compound 1 µM, first compound 0.0316 µM
[12] = second compound 1 µM, first compound 0.1 µM
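Note: spheroids exposed to compound for 7 days before readout.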
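Throughout, for viability, T/C: 100% = DMSO vehicle control wells.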

With NC1c2ccccc2OC12CCN(c1cnc3c(N4CCCc5ncccc54)n[nH]c3n1)CC2 (configuration not stated) + C=CC(=O)N1CCN(c2nc(OCC3CCCN3C)nc3c(F)c(-c4nc(N)cc(C)c4C(F)(F)F)c(Cl)cc23)C(C)C1 as the molecule, how does the IC50 (curve of first compound, second compound 0.00316 µM) read?
The IC50 was greater than 10000 nM.

What about the IC50 (curve of first compound, second compound 0.01 µM) of the same molecule?
The IC50 was greater than 10000 nM.

What about the IC50 [1] of the same molecule?
Its IC50 is greater than 10000 nM.

And the IC50 [2]?
The IC50 was greater than 10000 nM.

And the IC50 [3]?
The IC50 was greater than 10000 nM.

And the IC50 [4]?
Its IC50 is greater than 10000 nM.

And the viability, T/C (second compound 0.00316 µM, first compound 0.0316 µM)?
The viability, T/C was 104%.

And the viability, T/C (second compound 0.00316 µM, first compound 0.1 µM)?
Its viability, T/C is 128%.

What about the viability, T/C (second compound 0.00316 µM, first compound 0.316 µM) of the same molecule?
The viability, T/C was 83.3%.

What about the viability, T/C (second compound 0.00316 µM, first compound 1 µM) of the same molecule?
Its viability, T/C is 82.7%.

And the viability, T/C (second compound 0.00316 µM, first compound 3.16 µM)?
The viability, T/C was 79.5%.

And the viability, T/C (second compound 0.00316 µM, first compound 10 µM)?
Its viability, T/C is 61.7%.

And the viability, T/C (second compound 0.01 µM, first compound 0.0316 µM)?
The viability, T/C was 99%.

And the viability, T/C (second compound 0.01 µM, first compound 0.1 µM)?
Its viability, T/C is 122%.

And the viability, T/C (second compound 0.01 µM, first compound 0.316 µM)?
The viability, T/C was 107%.

What about the viability, T/C (second compound 0.01 µM, first compound 1 µM) of the same molecule?
The viability, T/C was 72.2%.

What about the viability, T/C (second compound 0.01 µM, first compound 3.16 µM) of the same molecule?
The viability, T/C was 98.7%.

What about the viability, T/C (second compound 0.01 µM, first compound 10 µM) of the same molecule?
The viability, T/C was 62.6%.

And the viability, T/C [5]?
The viability, T/C was 120%.

What about the viability, T/C [6] of the same molecule?
The viability, T/C was 126%.

And the viability, T/C (second compound 0.0316 µM, first compound 0.316 µM)?
The viability, T/C was 86.9%.

And the viability, T/C (second compound 0.0316 µM, first compound 1 µM)?
Its viability, T/C is 89.3%.

What about the viability, T/C (second compound 0.0316 µM, first compound 3.16 µM) of the same molecule?
Its viability, T/C is 77.1%.

What about the viability, T/C (second compound 0.0316 µM, first compound 10 µM) of the same molecule?
Its viability, T/C is 56.2%.

What about the viability, T/C [7] of the same molecule?
Its viability, T/C is 124%.

What about the viability, T/C [8] of the same molecule?
The viability, T/C was 129%.

What about the viability, T/C (second compound 0.1 µM, first compound 0.316 µM) of the same molecule?
The viability, T/C was 98.8%.

And the viability, T/C (second compound 0.1 µM, first compound 1 µM)?
Its viability, T/C is 67.5%.

What about the viability, T/C (second compound 0.1 µM, first compound 3.16 µM) of the same molecule?
The viability, T/C was 73.3%.

What about the viability, T/C (second compound 0.1 µM, first compound 10 µM) of the same molecule?
Its viability, T/C is 54.7%.

And the viability, T/C [9]?
The viability, T/C was 124%.

What about the viability, T/C [10] of the same molecule?
The viability, T/C was 138%.

And the viability, T/C (second compound 0.316 µM, first compound 0.316 µM)?
The viability, T/C was 87%.

What about the viability, T/C (second compound 0.316 µM, first compound 1 µM) of the same molecule?
Its viability, T/C is 84.4%.

What about the viability, T/C (second compound 0.316 µM, first compound 3.16 µM) of the same molecule?
Its viability, T/C is 76.2%.

What about the viability, T/C (second compound 0.316 µM, first compound 10 µM) of the same molecule?
Its viability, T/C is 56.8%.

What about the viability, T/C [11] of the same molecule?
The viability, T/C was 122%.

What about the viability, T/C [12] of the same molecule?
Its viability, T/C is 119%.

What about the viability, T/C (second compound 1 µM, first compound 0.316 µM) of the same molecule?
The viability, T/C was 76.1%.

And the viability, T/C (second compound 1 µM, first compound 1 µM)?
Its viability, T/C is 87.4%.

What about the viability, T/C (second compound 1 µM, first compound 3.16 µM) of the same molecule?
Its viability, T/C is 91%.

And the viability, T/C (second compound 1 µM, first compound 10 µM)?
Its viability, T/C is 60.4%.

Which viability, T/C (compound 1 µM) does the source give for CC1(O)CCCC1n1c(=O)c(C(F)F)cc2cnc(NC3CCN(S(C)(=O)=O)CC3)nc21 (configuration not stated) here?
The viability, T/C was 106% [middle of 4 runs].

What about the viability, T/C (compound 3.16 µM) of the same molecule?
Its viability, T/C is 105% and 103% (2×) and 123%.

What about the IC50 (curve of compound) of the same molecule?
Its IC50 is > 10000 nM and 7540 nM and 8690 nM.

What does the source list for CC(C)n1nc(-c2ccc3oc(N)nc3c2)c2c(N)ncnc21 + C#Cc1c(F)ccc2cc(O)cc(-c3ncc4c(N5CC6CCC(C5)N6)nc(OCC56CCCN5CC(F)C6)nc4c3F)c12?
IC50 [1]: 67.5 nM; IC50 [2]: 9.86 nM; IC50 [3]: 6.58 nM; IC50 [4]: 3.24 nM; IC50 (curve of first compound, second compound 3.16 µM): 0.918 nM; IC50 (curve of first compound, second compound 10 µM): 0.639 nM; viability, T/C (second compound 0.0316 µM, first compound 0.000316 µM): 91.9%; viability, T/C (second compound 0.0316 µM, first compound 0.001 µM): 95.8%; viability, T/C (second compound 0.0316 µM, first compound 0.00316 µM): 77.1%; viability, T/C (second compound 0.0316 µM, first compound 0.01 µM): 61.3%; viability, T/C [5]: 50.5%; viability, T/C [6]: 49.3%; viability, T/C (second compound 0.1 µM, first compound 0.000316 µM): 81.4%; viability, T/C (second compound 0.1 µM, first compound 0.001 µM): 80.2%; viability, T/C (second compound 0.1 µM, first compound 0.00316 µM): 70.3%; viability, T/C (second compound 0.1 µM, first compound 0.01 µM): 49.9%; viability, T/C [7]: 40.6%; viability, T/C [8]: 40%; viability, T/C (second compound 0.316 µM, first compound 0.000316 µM): 78.3%; viability, T/C (second compound 0.316 µM, first compound 0.001 µM): 73.5%; viability, T/C (second compound 0.316 µM, first compound 0.00316 µM): 57.9%; viability, T/C (second compound 0.316 µM, first compound 0.01 µM): 44.5%; viability, T/C [9]: 38%; viability, T/C [10]: 31.3%; viability, T/C (second compound 1 µM, first compound 0.000316 µM): 57.9%; viability, T/C (second compound 1 µM, first compound 0.001 µM): 64%; viability, T/C (second compound 1 µM, first compound 0.00316 µM): 50.4%; viability, T/C (second compound 1 µM, first compound 0.01 µM): 29.4%; viability, T/C [11]: 28.7%; viability, T/C [12]: 27.8%; viability, T/C (second compound 3.16 µM, first compound 0.000316 µM): 63.4%; viability, T/C (second compound 3.16 µM, first compound 0.001 µM): 46.9%; viability, T/C (second compound 3.16 µM, first compound 0.00316 µM): 39.2%; viability, T/C (second compound 3.16 µM, first compound 0.01 µM): 30.7%; viability, T/C (second compound 3.16 µM, first compound 0.0316 µM): 24.1%; viability, T/C (second compound 3.16 µM, first compound 0.1 µM): 19.8%; viability, T/C (second compound 10 µM, first compound 0.000316 µM): 55%; viability, T/C (second compound 10 µM, first compound 0.001 µM): 48%; viability, T/C (second compound 10 µM, first compound 0.00316 µM): 37.9%; viability, T/C (second compound 10 µM, first compound 0.01 µM): 29.1%; viability, T/C (second compound 10 µM, first compound 0.0316 µM): 21.7%; viability, T/C (second compound 10 µM, first compound 0.1 µM): 17.8%
